How the values were obtained:
ALK5 kinase = molecular target: T1, ALK5 kinase (Homo sapiens, UniProt P36897); experiment: LanthaScreen Eu Kinase Binding Assay; details: Kinase Tracer 178, Eu-anti-GST Antibody, read-out: IC50 Enzyme
T1 sequence (P36897 34-503): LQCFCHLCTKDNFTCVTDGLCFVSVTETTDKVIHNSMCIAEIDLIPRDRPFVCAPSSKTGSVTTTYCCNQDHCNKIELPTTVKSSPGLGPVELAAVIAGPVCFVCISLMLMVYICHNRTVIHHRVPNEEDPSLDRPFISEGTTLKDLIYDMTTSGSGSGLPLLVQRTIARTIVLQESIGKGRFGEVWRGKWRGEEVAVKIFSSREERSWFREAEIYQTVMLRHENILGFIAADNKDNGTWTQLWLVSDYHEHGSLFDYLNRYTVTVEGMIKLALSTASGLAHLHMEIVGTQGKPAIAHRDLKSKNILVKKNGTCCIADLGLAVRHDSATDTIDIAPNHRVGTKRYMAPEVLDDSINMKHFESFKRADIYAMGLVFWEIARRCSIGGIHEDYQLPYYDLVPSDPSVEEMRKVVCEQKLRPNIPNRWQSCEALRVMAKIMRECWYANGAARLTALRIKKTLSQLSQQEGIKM
Method: [Example 1] LanthaScreen Eu Kinase Binding Assay
4 μL of 4× Test Compound in 4% DMSO and 4 μL of 4× Kinase in Kinase buffer were added to wells (low volume, white 384-well plate (Greiner Cat. #784207)). The plate was shaken for 30 seconds, centrifuged for 10 seconds at 1000 rpm, and incubated at RT for 30 minutes. Then, 4 μL of 4× Eu-anti-GST Antibody and 4 μL of 4× Kinase Tracer 178 were added to the wells. The plate was shaken for 30 seconds, centrifuged for 10 seconds at 1000 rpm, and incubated at RT for 60 minutes. Fluorescence was measured by a plate reader, Biotek Synergy H1 (Vermont, USA) under the following conditions. • Excitation: 340 nm (3 nm bandpass) • Kinase tracer emission: 665 nm (10 nm bandpass) • Eu Ab emission: 615 nm (10 nm bandpass) • Emission ratio=665 nm (tracer)/615 nm (Eu Ab) • The higher the binding affinity of compound to ALK5 kinase is, the less the emission ratio is.

TGF-β signaling = experiment: Assay for evaluating cellular inhibition of TGF-β signaling, 4T1 (SBE-luc2P) luciferase reporter; type: cell-based; details: Mus musculus, 4T1, 4T1 (SBE-luc2P) transient pool, 0.2% FBS, 2 h pre-treatment, TGF-β1 2 ng/mL 24 h; read-out: IC50 4T1 Cell
Method: [Example 2] Assay for Evaluating Cellular Inhibition of TGF-β Signaling
4T1 (SBE-luc2P) transient pool that have SBE-luc2P (hygro) expression plasmid or HEK293 (SBE reporter) stable cells (BPS bioscience) were seeded at 6×10^3 cells/well or 2.5×10^4 cells/well in 96-well plate, respectively. 4T1 (SBE-luc2P) transient pool were pre-treated with novel compound synthesized in Example 1 above in 0.2% FBS at approximately 60% confluence at 37° C. in 5% CO2. Also, HEK293 (SBE reporter) stable cells were pre-treated with each test compounds of formula in 0.5% FBS at approximately 80% confluence at 37° C. in 5% CO2. After 2 hours, cells were treated with TGF-β1 (2 ng/mL) for 24 h at 37° C. in 5% CO2. Cell lysates were prepared using Luciferase Assay (Promega) according to the manufacturer's instruction, and luminescence was measured by a plate reader, Biotek Synergy H1 (Vermont, USA).

SMILES: Nc1nc(-c2ccccc2)c(Oc2ccnc(Nc3cccc(S(N)(=O)=O)c3)c2)s1 [A-1, 3-((4-((2-Amino-4-phenylthiazol-5-yl)oxy)pyridin-2-yl)amino)benzenesulfonamide]
- IC50 (ALK5 kinase): < 100 nM
- IC50 (TGF-β signaling): < 100 nM

SMILES: NC(=O)c1cccc(Nc2cc(Oc3sc(N)nc3-c3ccccc3)ccn2)c1 [A-2, 3-((4-((2-Amino-4-phenylthiazol-5-yl)oxy)pyridin-2-yl)amino)benzamide]
- IC50 (ALK5 kinase): < 100 nM
- IC50 (TGF-β signaling): < 100 nM

SMILES: COC(=O)c1cccc(Nc2cc(Oc3sc(N)nc3-c3ccccc3)ccn2)c1 [A-3, Methyl 3-((4-((2-amino-4-phenylthiazol-5-yl)oxy)pyridin-2-yl)amino)benzoate]
- IC50 (ALK5 kinase): < 100 nM
- IC50 (TGF-β signaling): > 100 nM

SMILES: Nc1nc(-c2ccccc2)c(Oc2ccnc(Nc3ccc(S(N)(=O)=O)cc3)c2)s1 [A-4, 4-((4-((2-Amino-4-phenylthiazol-5-yl)oxy)pyridin-2-yl)amino)benzenesulfonamide]
- IC50 (ALK5 kinase): < 100 nM
- IC50 (TGF-β signaling): > 100 nM

SMILES: NC(=O)c1ccc(Nc2cc(Oc3sc(N)nc3-c3ccccc3)ccn2)cc1 [A-5, 4-((4-((2-Amino-4-phenylthiazol-5-yl)oxy)pyridin-2-yl)amino)benzamide]
- IC50 (ALK5 kinase): < 100 nM
- IC50 (TGF-β signaling): > 100 nM

SMILES: NC(=O)c1ccc(Nc2cc(Oc3sc(N)nc3-c3ccccc3)ccn2)nc1 [A-9, 6-((4-((2-Amino-4-phenylthiazol-5-yl)oxy)pyridin-2-yl)amino)nicotinamide]
- IC50 (ALK5 kinase): < 100 nM
- IC50 (TGF-β signaling): < 100 nM

SMILES: CN(C)C(=O)c1cccc(Nc2cc(Oc3sc(N)nc3-c3ccccc3)ccn2)c1 [A-10, 3-((4-((2-Amino-4-phenylthiazol-5-yl)oxy)pyridin-2-yl)amino)-N,N-dimethylbenzamide]
- IC50 (ALK5 kinase): < 100 nM
- IC50 (TGF-β signaling): > 100 nM

SMILES: CS(=O)(=O)Nc1cccc(Nc2cc(Oc3sc(N)nc3-c3ccccc3)ccn2)c1 [A-14, N-(3-((4-((2-Amino-4-phenylthiazol-5-yl)oxy)pyridin-2-yl)amino)phenyl)methanesulfonamide]
- IC50 (ALK5 kinase): < 100 nM
- IC50 (TGF-β signaling): < 100 nM

SMILES: Nc1nc(-c2ccccc2)c(Oc2ccnc(Nc3ccc(C(=O)O)cc3)c2)s1 [A-39, 4-((4-((2-Amino-4-phenylthiazol-5-yl)oxy)pyridin-2-yl)amino)benzoic acid]
- IC50 (ALK5 kinase): < 100 nM
- IC50 (TGF-β signaling): > 100 nM

SMILES: Nc1nc(-c2ccccc2)c(Oc2ccnc(Nc3cccc(C(=O)O)c3)c2)s1 [A-40, 3-((4-((2-Amino-4-phenylthiazol-5-yl)oxy)pyridin-2-yl)amino)benzoic acid]
- IC50 (ALK5 kinase): < 100 nM
- IC50 (TGF-β signaling): > 100 nM

SMILES: CC(C)(O)c1cccc(Nc2cc(Oc3sc(N)nc3-c3ccccc3)ccn2)c1 [A-41, 2-(3-((4-((2-Amino-4-phenylthiazol-5-yl)oxy)pyridin-2-yl)amino)phenyl)propan-2-ol]
- IC50 (ALK5 kinase): < 100 nM
- IC50 (TGF-β signaling): > 100 nM

SMILES: CC(C)(O)c1cc(Nc2cc(Oc3sc(N)nc3-c3ccccc3)ccn2)ccn1 [A-42, 2-(4-((4-((2-Amino-4-phenylthiazol-5-yl)oxy)pyridin-2-yl)amino)pyridin-2-yl)propan-2-ol]
- IC50 (ALK5 kinase): < 100 nM
- IC50 (TGF-β signaling): > 100 nM

SMILES: CC(C)(O)c1ccc(Nc2cc(Oc3sc(N)nc3-c3ccccc3)ccn2)cn1 [A-43, 2-(5-((4-((2-Amino-4-phenylthiazol-5-yl)oxy)pyridin-2-yl)amino)pyridin-2-yl)propan-2-ol]
- IC50 (ALK5 kinase): < 100 nM
- IC50 (TGF-β signaling): > 100 nM

SMILES: NC(=O)c1cccc(Nc2cc(Oc3sc(NC4CC4)nc3-c3ccccc3)ccn2)c1 [A-46, 3-((4-((2-(Cyclopropylamino)-4-phenylthiazol-5-yl)oxy)pyridin-2-yl)amino)benzamide]
- IC50 (ALK5 kinase): < 100 nM

SMILES: CNc1nc(-c2ccccc2)c(Oc2ccnc(Nc3ccc(S(N)(=O)=O)cc3)c2)s1 [A-53, 4-((4-((2-(Methylamino)-4-phenylthiazol-5-yl)oxy)pyridin-2-yl)amino)benzenesulfonamide]
- IC50 (ALK5 kinase): < 100 nM

SMILES: CNc1nc(-c2ccccc2)c(Oc2ccnc(Nc3ccnc(C(C)(C)O)c3)c2)s1 [A-54, 2-(4-((4-((2-(Methylamino)-4-phenylthiazol-5-yl)oxy)pyridin-2-yl)amino)pyridin-2-yl)propan-2-ol]
- IC50 (ALK5 kinase): < 100 nM

SMILES: CNc1nc(-c2ccccc2)c(Oc2ccnc(Nc3ccc(C(C)(C)O)nc3)c2)s1 [A-55, 2-(5-((4-((2-(Methylamino)-4-phenylthiazol-5-yl)oxy)pyridin-2-yl)amino)pyridin-2-yl)propan-2-ol]
- IC50 (ALK5 kinase): < 100 nM

SMILES: O=S(=O)(Nc1cccc(Nc2cc(Oc3sc(C4CC4)nc3-c3ccccc3)ccn2)c1)C(F)(F)F [A-123, N-(3-((4-((2-Cyclopropyl-4-phenylthiazol-5-yl)oxy)pyridin-2-yl)amino)phenyl)-1,1,1-trifluoromethanesulfonamide]
- IC50 (TGF-β signaling): < 100 nM

SMILES: COC(=O)c1ccc(Nc2cc(Oc3sc(C4CC4)nc3-c3ccccc3)ccn2)nc1 [A-130, Methyl 6-((4-((2-cyclopropyl-4-phenylthiazol-5-yl)oxy)pyridin-2-yl)amino)nicotinate]
- IC50 (TGF-β signaling): < 100 nM

SMILES: COC(=O)c1cccc(Nc2cc(Oc3sc(C4CC4)nc3-c3ccccc3)ccn2)n1 [A-131, Methyl 6-((4-((2-cyclopropyl-4-phenylthiazol-5-yl)oxy)pyridin-2-yl)amino)picolinate]
- IC50 (TGF-β signaling): > 100 nM

SMILES: COC(=O)c1cccc(Nc2cc(Oc3sc(N(C)C)nc3-c3ccccc3)ccn2)n1 [A-162, Methyl 6-((4-((2-(dimethylamino)-4-phenylthiazol-5-yl)oxy)pyridin-2-yl)amino)picolinate]
- IC50 (TGF-β signaling): < 100 nM

SMILES: NC(=O)c1ccc(Nc2cc(Oc3sc(C4CCCC4)nc3-c3ccccc3)ccn2)nc1 [A-173, 6-((4-((2-Cyclopentyl-4-phenylthiazol-5-yl)oxy)pyridin-2-yl)amino)nicotinamide]
- IC50 (ALK5 kinase): > 100 nM

SMILES: COC(=O)c1cccc(Nc2cc(Oc3sc(C(C)C)nc3-c3ccccc3)ccn2)n1 [A-216, Methyl 6-((4-((2-Isopropyl-4-phenylthiazol-5-yl)oxy)pyridin-2-yl)amino)picolinate]
- IC50 (TGF-β signaling): > 100 nM

SMILES: Cc1nc(-c2ccccc2)c(Oc2cc(Nc3cccc(S(N)(=O)=O)c3)ncn2)s1 [A-237, 3-((6-((2-Methyl-4-phenylthiazol-5-yl)oxy)pyrimidin-4-yl)amino)benzenesulfonamide]
- IC50 (TGF-β signaling): > 100 nM

SMILES: Nc1nc(-c2ccccc2)c(Oc2cc(Nc3cccc(S(N)(=O)=O)c3)ncn2)s1 [A-239, 3-((6-((2-Amino-4-phenylthiazol-5-yl)oxy)pyrimidin-4-yl)amino)benzenesulfonamide]
- IC50 (TGF-β signaling): < 100 nM

SMILES: Cc1cccc(-c2nc(N)sc2Oc2ccnc(Nc3cccc(S(N)(=O)=O)c3)c2)n1 [A-247, 3-((4-((2-Amino-4-(6-methylpyridin-2-yl)thiazol-5-yl)oxy)pyridin-2-yl)amino)benzenesulfonamide]
- IC50 (ALK5 kinase): < 100 nM

SMILES: Cc1cccc(-c2nc(C)sc2Oc2ccnc(Nc3cccc(Cc4nnn[nH]4)c3)c2)n1 [A-305, N-(3-((1H-Tetrazol-5-yl)methyl)phenyl)-4-((2-methyl-4-(6-methylpyridin-2-yl)thiazol-5-yl)oxy)pyridin-2-amine]
- IC50 (TGF-β signaling): > 100 nM

SMILES: Cc1cccc(-c2nc(C)sc2Oc2ccnc(Nc3cccc(CCC#N)c3)c2)n1 [A-306, 3-(3-((4-((2-Methyl-4-(6-methylpyridin-2-yl)thiazol-5-yl)oxy)pyridin-2-yl)amino)phenyl)propanenitrile]
- IC50 (TGF-β signaling): < 100 nM

SMILES: Cc1cccc(-c2nc(C)sc2Oc2ccnc(Nc3cccc(CCc4nn[nH]n4)c3)c2)n1 [A-307, N-(3-(2-(2H-tetrazol-5-yl)ethyl)phenyl)-4-((2-methyl-4-(6-methylpyridin-2-yl)thiazol-5-yl)oxy)pyridin-2-amine]
- IC50 (TGF-β signaling): < 100 nM

SMILES: COC(=O)C(C)(C)c1cccc(Nc2cc(Oc3sc(C)nc3-c3cccc(C)n3)ccn2)c1 [A-308, Methyl 2-methyl-2-(3-((4-((2-methyl-4-(6-methylpyridin-2-yl)thiazol-5-yl)oxy)pyridin-2-yl)amino)phenyl)propanoate]
- IC50 (TGF-β signaling): < 100 nM

SMILES: CCc1nc(-c2ccccc2)c(Oc2ccnc(Nc3cccc(NS(=O)(=O)C(F)(F)F)c3)c2)s1 [A-311, N-(3-((4-((2-Ethyl-4-phenylthiazol-5-yl)oxy)pyridin-2-yl)amino)phenyl)-1,1,1-trifluoromethanesulfonamide]
- IC50 (TGF-β signaling): < 100 nM

— patent publication US20250206730A1 (AUTOTELIC BIO INC., priority 2022, published 2025)
